Data published in ChEMBL document CHEMBL3124761, “Synthesis and biological evaluation of N,N'-squaramides with high in vivo efficacy and low toxicity: toward a low-cost drug against Chagas disease” (J Med Chem, 2014).
Active and inactive are the calls of the source. The rule behind the calls is not given here.

What was measured:
Trypanosoma cruzi [1] = test: Antitrypanosomal activity against epimastigote stage of Trypanosoma cruzi IRHOD/CO/2008/SN3 assessed as change in excreted lactate level at IC25 after 96 hrs by 1H NMR analysis relative to control; type: functional
[2] = Selectivity index, ratio of IC50 for African green monkey Vero cells to IC50 for epimastigote stage of Trypanosoma cruzi IRHOD/CO/2008/SN3; type: toxicity, cell-based; settings: read-out: Ratio IC50
Trypanosoma cruzi [3] = test: (§1) Antitrypanosomal activity against amastigote stage of Trypanosoma cruzi IRHOD/CO/2008/SN3 infected in African green monkey Vero cells assessed as decrease in infection rate at IC25 preincubated for 12 hrs followed by compound washout measured every 48 hrs for 10 days by Neubauer hemocytometric chamber analysis relative to control; type: functional
Trypanosoma cruzi [4] = test: Antitrypanosomal activity against epimastigote stage of Trypanosoma cruzi IRHOD/CO/2008/SN3 assessed as change in excreted alanine level at IC25 after 96 hrs by 1H NMR analysis relative to control; type: functional
[5] = Selectivity index, ratio of IC50 for African green monkey Vero cells to IC50 for amastigote stage of Trypanosoma cruzi IRHOD/CO/2008/SN3 infected in African green monkey Vero cells; type: toxicity, cell-based; settings: read-out: Ratio IC50
Trypanosoma cruzi [6] = test: Trypanocidal activity against metacyclic trypomastigote stage of Trypanosoma cruzi infected in BALB/c albino mouse acute chagas disease model assessed as inhibition of parasitemia at 25 mg/kg, ip administered on day 7 to 12 post-infection measured every 2 days until day 40 […] relative to control; type: functional; settings: route intraperitoneal
Trypanosoma cruzi [7] = test: Antitrypanosomal activity against epimastigote stage of Trypanosoma cruzi IRHOD/CO/2008/SN3 assessed as change in excreted succinate level at IC25 after 96 hrs by 1H NMR analysis relative to control; type: functional
Trypanosoma cruzi [8] = test: Antitrypanosomal activity against trypomastigote stage of Trypanosoma cruzi IRHOD/CO/2008/SN3 assessed as reduction of trypomastigote number per mililiter of culture medium at IC25 preincubated for 12 hrs followed by compound washout measured every 48 hrs for 10 days by Neubauer hemocytometric chamber analysis relative to control; type: functional
Trypanosoma cruzi [9] = test: as §1, with “reduction of amastigote number per cell” for “decrease in infection rate”; type: functional
Mus musculus [10] = test: Toxicity in BALB/c albino mouse infected with blood trypomastigote stage of Trypanosoma cruzi assessed as decrease in creatinephophokinase-MB level in serum at 25 mg/kg, ip administered on day 7 to 12 post-infection measured after day 120 relative to control; type: organism-based; set-up: dose 25 mg/kg, route intraperitoneal; scale not given: the % may be the effect or the level left; settings: in vivo
Trypanosoma cruzi [11] = test: Antitrypanosomal activity against amastigote stage of Trypanosoma cruzi IRHOD/CO/2008/SN3 infected in African green monkey Vero cells assessed as parasite growth inhibition after 72 hrs by Giemsa staining-based microscopic analysis; type: functional, organism-based; settings: IRHOD/CO/2008/SN3, Vero
Trypanosoma cruzi [12] = test: Antitrypanosomal activity against epimastigote stage of Trypanosoma cruzi IRHOD/CO/2008/SN3 assessed as change in excreted pyruvate level at IC25 after 96 hrs by 1H NMR analysis relative to control; type: functional
Mus musculus [13] = test: Toxicity in BALB/c albino mouse assessed as mortality at 25 mg/kg, ip administered for 5 days; type: organism-based; set-up: dose 25 mg/kg, route intraperitoneal; settings: in vivo, 120 h
Mus musculus [14] = test: Toxicity in BALB/c albino mouse infected with blood trypomastigote stage of Trypanosoma cruzi assessed as change in LDH level in serum at 25 mg/kg, ip administered on day 7 to 12 post-infection measured after day 120 relative to control; type: organism-based; set-up: dose 25 mg/kg, route intraperitoneal; settings: in vivo
Trypanosoma cruzi [15] = test: Antitrypanosomal activity against epimastigote stage of Trypanosoma cruzi IRHOD/CO/2008/SN3 assessed as parasite growth inhibition after 72 hrs by Neubauer hemocytometric chamber analysis; type: functional, organism-based; settings: IRHOD/CO/2008/SN3, 72 h
Mus musculus [16] = test: Toxicity in BALB/c albino mouse infected with blood trypomastigote stage of Trypanosoma cruzi assessed as change in uric acid level in serum at 25 mg/kg, ip administered on day 7 to 12 post-infection measured after day 120 relative to control; type: organism-based; set-up: dose 25 mg/kg, route intraperitoneal; settings: in vivo
Mus musculus [17] = test: Toxicity in BALB/c albino mouse infected with blood trypomastigote stage of Trypanosoma cruzi assessed as change in alkaline phosphatase level in serum at 25 mg/kg, ip administered on day 7 to 12 post-infection measured after day 120 relative to control; type: organism-based; set-up: dose 25 mg/kg, route intraperitoneal; settings: in vivo
Mus musculus [18] = test: Toxicity in BALB/c albino mouse infected with blood trypomastigote stage of Trypanosoma cruzi assessed as change in urea level in serum at 25 mg/kg, ip administered on day 7 to 12 post-infection measured after day 120 relative to control; type: organism-based; set-up: dose 25 mg/kg, route intraperitoneal; settings: in vivo
Vero = test: Cytotoxicity against African green monkey Vero cells assessed as cell viability after 72 hrs by propidium iodide/fluorescein diacetate staining-based flow cytometric analysis; settings: Chlorocebus sabaeus
Mus musculus [19] = test: Toxicity in BALB/c albino mouse infected with blood trypomastigote stage of Trypanosoma cruzi assessed as decrease in ALT/GPT level in serum at 25 mg/kg, ip administered on day 7 to 12 post-infection measured after day 120 relative to control; type: organism-based; set-up: dose 25 mg/kg, route intraperitoneal; scale not given: the % may be the effect or the level left; settings: in vivo
Trypanosoma cruzi [20] = test: Antitrypanosomal activity against epimastigote stage of Trypanosoma cruzi IRHOD/CO/2008/SN3 assessed as change in excreted acetate level at IC25 after 96 hrs by 1H NMR analysis relative to control; type: functional
Trypanosoma cruzi [21] = test: Trypanocidal activity against metacyclic trypomastigote stage of Trypanosoma cruzi infected in BALB/c albino mouse acute chagas disease model assessed as reduction of parasite burden at 25 mg/kg, ip administered on day 7 to 12 post-infection measured on day 14 by ELISA; type: functional, organism-based; set-up: dose 25 mg/kg
Mus musculus [22] = test: Toxicity in BALB/c albino mouse infected with blood trypomastigote stage of Trypanosoma cruzi assessed as increase in AST/GOT level in serum at 25 mg/kg, ip administered on day 7 to 12 post-infection measured after day 120 relative to control; type: organism-based; set-up: dose 25 mg/kg, route intraperitoneal; settings: in vivo
Mus musculus [23] = test: Toxicity in BALB/c albino mouse infected with blood trypomastigote stage of Trypanosoma cruzi assessed as increase in total bilirubin level in serum at 25 mg/kg, ip administered on day 7 to 12 post-infection measured after day 120 relative to control; type: organism-based; set-up: dose 25 mg/kg, route intraperitoneal; settings: in vivo

CCCCNc1c(NCCCN(CCCC)CCCC)c(=O)c1=O
Activity (Trypanosoma cruzi [1]): -22.3%
selectivity ratio [2]: 13.3
inhibition (INH) (Trypanosoma cruzi [3]): 61%
Activity (Trypanosoma cruzi [4]): -7.9%
selectivity ratio [5]: 24.6
inhibition in vivo at 25 mg/kg (Trypanosoma cruzi [6]): 21%
Activity (Trypanosoma cruzi [7]): -21.6%
inhibition (INH) (Trypanosoma cruzi [8]): 38%
inhibition (INH) (Trypanosoma cruzi [9]): 45%
Activity (Mus musculus [10]): 30%
IC50 (Trypanosoma cruzi [11]): 6 µM
Activity (Trypanosoma cruzi [12]): -12%
Activity (Mus musculus [13]): Non-toxic
Activity (Mus musculus [14]): < 10%
IC50 (Trypanosoma cruzi [15]): 21.1 µM
Activity (Mus musculus [16]): < 10%
Activity (Mus musculus [17]): < 10%
Activity (Mus musculus [18]): < 10%
IC50 (Vero): 148 µM
Activity (Mus musculus [19]): 10%
Activity (Trypanosoma cruzi [20]): 8.5%
Activity (Trypanosoma cruzi [21]): Active
Activity (Mus musculus [22]): 40%
Activity (Mus musculus [23]): 30%
